Results reported in patent US20120183950A1, “TISSUE ANALYSIS” (priority 2009, published 2012).

Test system: influenza virus H3N2X31
Assay type: cell-based
Conditions: human bronchial and parenchymal lung tissue explants, X31 virus, NP-1 antibody, flow cytometry; FIG. 8

Row | Compound | efficacy as inhibitor of viral infection in the explant model (primary output: percentage of cells infected)
1 | Cl.N [ammonium chloride] | demonstrated the efficacy
2 | CCOC(=O)C1=C[C@@H](OC(CC)CC)[C@H](NC(C)=O)[C@@H](N)C1 [oseltamivir] | demonstrated the efficacy
